Measurements from ChEMBL document CHEMBL4229469, “Small molecule scaffolds that disrupt the Rev1-CT/RIR protein-protein interaction” (Bioorg Med Chem, 2018).
The source made the active and inactive calls. No cut-off for these calls is given here.

Biological target: T1, DNA repair protein REV1 (Homo sapiens) (UniProt Q9UBZ9)
T1 sequence (whole entry): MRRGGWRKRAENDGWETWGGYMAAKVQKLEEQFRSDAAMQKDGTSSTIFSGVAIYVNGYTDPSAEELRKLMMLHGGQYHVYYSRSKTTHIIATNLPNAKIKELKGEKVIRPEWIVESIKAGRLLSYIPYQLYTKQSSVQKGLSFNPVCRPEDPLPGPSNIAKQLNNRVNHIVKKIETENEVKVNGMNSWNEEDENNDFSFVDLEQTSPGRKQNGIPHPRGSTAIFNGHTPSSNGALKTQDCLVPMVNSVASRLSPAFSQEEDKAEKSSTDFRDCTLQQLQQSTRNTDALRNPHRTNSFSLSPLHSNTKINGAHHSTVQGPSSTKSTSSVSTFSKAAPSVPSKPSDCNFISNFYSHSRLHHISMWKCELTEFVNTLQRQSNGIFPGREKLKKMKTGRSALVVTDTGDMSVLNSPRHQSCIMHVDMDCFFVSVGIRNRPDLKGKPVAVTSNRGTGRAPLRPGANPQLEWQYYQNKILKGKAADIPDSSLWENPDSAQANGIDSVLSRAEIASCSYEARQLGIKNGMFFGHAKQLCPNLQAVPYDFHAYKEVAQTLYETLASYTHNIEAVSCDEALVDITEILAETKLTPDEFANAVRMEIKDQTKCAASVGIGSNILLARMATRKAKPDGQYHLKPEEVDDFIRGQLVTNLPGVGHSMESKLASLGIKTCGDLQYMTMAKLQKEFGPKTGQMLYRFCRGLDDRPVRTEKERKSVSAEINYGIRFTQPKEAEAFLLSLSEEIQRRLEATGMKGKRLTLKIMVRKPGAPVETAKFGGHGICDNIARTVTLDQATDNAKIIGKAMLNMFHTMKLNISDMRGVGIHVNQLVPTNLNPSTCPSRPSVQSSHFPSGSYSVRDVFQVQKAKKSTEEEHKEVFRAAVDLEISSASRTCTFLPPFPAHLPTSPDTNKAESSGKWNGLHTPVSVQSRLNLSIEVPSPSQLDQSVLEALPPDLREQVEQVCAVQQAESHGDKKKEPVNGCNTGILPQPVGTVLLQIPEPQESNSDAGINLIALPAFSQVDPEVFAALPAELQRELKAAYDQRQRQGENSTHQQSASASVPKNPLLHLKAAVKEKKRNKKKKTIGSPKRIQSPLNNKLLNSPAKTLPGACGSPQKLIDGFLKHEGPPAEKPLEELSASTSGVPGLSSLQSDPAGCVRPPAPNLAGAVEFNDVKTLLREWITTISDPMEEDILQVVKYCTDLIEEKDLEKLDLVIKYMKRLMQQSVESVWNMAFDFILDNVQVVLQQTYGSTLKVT
Assay: Displacement of FAM-labelled polkappa-RIR peptide from recombinant human C-terminal Rev1 (1158 to 1251 residues) expressed in Escherichia coli BL21(DE3) at 10 uM after 1 hr by fluorescence polarization assay relative to control

Compound	inhibition
CC(=O)N1CCC(C(=O)Nc2sc3c(c2C(N)=O)CCC(C)C3)CC1 (stereo not given)	> 85%
CC(=O)N1CCC(C(=O)Nc2sc3c(c2C(=O)NC2CC2)CCC(C)C3)CC1 (stereo not given)	> 85%
CCc1ccc(NC(=O)CN2CCN(c3ccc(OC)cc3)CC2)cc1	> 85%
COc1ccc(OC)c(-c2csc(N3CCN(C(=O)c4ccco4)CC3)n2)c1	> 85%
Cc1cccc(N2CCN(CC(=O)Nc3ccc(F)cc3)CC2)c1C	> 85%
CC(=O)N1CCC(C(=O)Nc2sc3c(c2C(=O)NC2CC2)CCCC3)CC1	> 85%
CC(=O)C(C)n1c(CN2CCN(c3cccc(Cl)c3)CC2)nc2c1c(=O)n(C)c(=O)n2C (stereo not given)	> 85%
N#Cc1ccc(NC(=O)CN2CCN(c3ccc(F)cc3)CC2)cc1	> 85%
CCCc1cc(C(=O)OCC)c(NC(=O)C2CCN(C(C)=O)CC2)s1	> 85%
COC(=O)c1cc(C)sc1NC(=O)C1CCN(C(C)=O)CC1	> 85%
CCc1ccc(NC(=O)CN2CCN(c3ccccc3)CC2)cc1	> 85%
Cc1ccc(C(=O)N2CCN(c3ccccc3)CC2)cc1S(=O)(=O)N1CCOCC1	> 85%
CCn1c2ccccc2c2cc(NC(=O)N3CCC(C(C)=O)CC3)ccc21	> 85%
CCc1ccc(NC(=O)CN2CCN(c3ccc(F)cc3)CC2)cc1	> 85%
CCCC1CCc2c(sc(NC(=O)C3CCN(C(C)=O)CC3)c2C(N)=O)C1 (stereo not given)	> 85%
O=C(CN1CCN(c2ccc(F)cc2)CC1)Nc1ccccc1	> 85%
CC(C)(C)C(=O)N1CCN(c2ccc(NC(=O)c3cccnc3)cc2Cl)CC1	> 85%
CCCCc1ccc(-n2nnc(C(=O)N(C)C3CCS(=O)(=O)C3)c2C)cc1 (stereo not given)	> 85%
CCc1cc(C(=O)OC)c(NC(=O)C2CCN(C(C)=O)CC2)s1	> 85%
COc1cc2c(cc1OC)CN(Cc1ccc(OCc3ccccc3)cc1)CC2	> 85%
CCS(=O)(=O)N(C)c1ccc(C(=O)N2CCN(c3ccccc3OC)CC2)cc1	> 85%

Biological target: T2, DNA repair protein REV1 (Homo sapiens, UniProt Q9UBZ9)
T2 sequence (Q9UBZ9 whole entry): T1 sequence (whole entry)
Assay: Displacement of FAM-labelled polkappa-RIR peptide from recombinant human C-terminal Rev1 (1158 to 1251 residues) expressed in Escherichia coli BL21(DE3) after 1 hr by fluorescence polarization assay

Compound	IC50	Kd	Ki
CC(=O)N1CCC(C(=O)Nc2sc3c(c2C(N)=O)CCC(C)C3)CC1 (stereo not given)	13.2 µM	12.6 µM	15.7 µM
CC(=O)N1CCC(C(=O)Nc2sc3c(c2C(=O)NC2CC2)CCC(C)C3)CC1 (stereo not given)	2.5 µM	4.4 µM	4.6 µM
CCc1ccc(NC(=O)CN2CCN(c3ccc(OC)cc3)CC2)cc1	5.5 µM	3.6 µM	3.6 µM
COc1ccc(OC)c(-c2csc(N3CCN(C(=O)c4ccco4)CC3)n2)c1	6.2 µM	3.7 µM	4.8 µM
Cc1cccc(N2CCN(CC(=O)Nc3ccc(F)cc3)CC2)c1C	21.1 µM	12.4 µM	14.8 µM
CC(=O)N1CCC(C(=O)Nc2sc3c(c2C(=O)NC2CC2)CCCC3)CC1	21.5 µM	26.6 µM	31.5 µM
CC(=O)C(C)n1c(CN2CCN(c3cccc(Cl)c3)CC2)nc2c1c(=O)n(C)c(=O)n2C (stereo not given)	2.5 µM	2.1 µM	2 µM
N#Cc1ccc(NC(=O)CN2CCN(c3ccc(F)cc3)CC2)cc1	> 50 µM	109 µM	–
CCCc1cc(C(=O)OCC)c(NC(=O)C2CCN(C(C)=O)CC2)s1	5.9 µM	7.8 µM	11.6 µM
COC(=O)c1cc(C)sc1NC(=O)C1CCN(C(C)=O)CC1	9.4 µM	8.2 µM	7.4 µM
CCc1ccc(NC(=O)CN2CCN(c3ccccc3)CC2)cc1	> 50 µM	49.5 µM	–
Cc1ccc(C(=O)N2CCN(c3ccccc3)CC2)cc1S(=O)(=O)N1CCOCC1	3.5 µM	2.9 µM	3 µM
CCn1c2ccccc2c2cc(NC(=O)N3CCC(C(C)=O)CC3)ccc21	4.6 µM	6.9 µM	8.9 µM
CCc1ccc(NC(=O)CN2CCN(c3ccc(F)cc3)CC2)cc1	2.5 µM	6.5 µM	6.9 µM
CCCC1CCc2c(sc(NC(=O)C3CCN(C(C)=O)CC3)c2C(N)=O)C1 (stereo not given)	4.9 µM	9.5 µM	11.9 µM
O=C(CN1CCN(c2ccc(F)cc2)CC1)Nc1ccccc1	28 µM	42.2 µM	46.6 µM
CC(C)(C)C(=O)N1CCN(c2ccc(NC(=O)c3cccnc3)cc2Cl)CC1	12.3 µM	18.2 µM	19 µM
CCCCc1ccc(-n2nnc(C(=O)N(C)C3CCS(=O)(=O)C3)c2C)cc1 (stereo not given)	5.9 µM	3.6 µM	4.9 µM
CCc1cc(C(=O)OC)c(NC(=O)C2CCN(C(C)=O)CC2)s1	12.4 µM	23.7 µM	28.8 µM
COc1cc2c(cc1OC)CN(Cc1ccc(OCc3ccccc3)cc1)CC2	11.9 µM	12.6 µM	14.5 µM
CCS(=O)(=O)N(C)c1ccc(C(=O)N2CCN(c3ccccc3OC)CC2)cc1	4.6 µM	4.3 µM	4.7 µM

System: not listed separately
Assay: Growth inhibition of cisplatin-resistant human U2OS cells after 72 hrs by MTS assay
Format: cell-based

Compound	GI50 at 72 h
CC(=O)N1CCC(C(=O)Nc2sc3c(c2C(=O)NC2CC2)CCC(C)C3)CC1 (stereo not given)	> 100 µM
COc1ccc(OC)c(-c2csc(N3CCN(C(=O)c4ccco4)CC3)n2)c1	> 100 µM
CC(=O)C(C)n1c(CN2CCN(c3cccc(Cl)c3)CC2)nc2c1c(=O)n(C)c(=O)n2C (stereo not given)	> 100 µM
Cc1ccc(C(=O)N2CCN(c3ccccc3)CC2)cc1S(=O)(=O)N1CCOCC1	> 100 µM
CC(C)(C)C(=O)N1CCN(c2ccc(NC(=O)c3cccnc3)cc2Cl)CC1	> 100 µM
CCCCc1ccc(-n2nnc(C(=O)N(C)C3CCS(=O)(=O)C3)c2C)cc1 (stereo not given)	> 100 µM
COc1cc2c(cc1OC)CN(Cc1ccc(OCc3ccccc3)cc1)CC2	> 100 µM
CCS(=O)(=O)N(C)c1ccc(C(=O)N2CCN(c3ccccc3OC)CC2)cc1	> 100 µM

System: U2OS
Assay: Potentiation of cisplatin-induced cytotoxicity in cisplatin-resistant human U2OS cells assessed as cisplatin GI50 at 50 uM after 72 hrs by MTS assay (reference value: 23.9 +/- 1.9 uM)
Format: functional

Compound	GI50
CC(=O)N1CCC(C(=O)Nc2sc3c(c2C(=O)NC2CC2)CCC(C)C3)CC1 (stereo not given)	15.3 µM
COc1ccc(OC)c(-c2csc(N3CCN(C(=O)c4ccco4)CC3)n2)c1	11.8 µM
CC(=O)C(C)n1c(CN2CCN(c3cccc(Cl)c3)CC2)nc2c1c(=O)n(C)c(=O)n2C (stereo not given)	7.8 µM
Cc1ccc(C(=O)N2CCN(c3ccccc3)CC2)cc1S(=O)(=O)N1CCOCC1	28.2 µM
CC(C)(C)C(=O)N1CCN(c2ccc(NC(=O)c3cccnc3)cc2Cl)CC1	25.9 µM
CCCCc1ccc(-n2nnc(C(=O)N(C)C3CCS(=O)(=O)C3)c2C)cc1 (stereo not given)	20.1 µM
COc1cc2c(cc1OC)CN(Cc1ccc(OCc3ccccc3)cc1)CC2	10.1 µM
CCS(=O)(=O)N(C)c1ccc(C(=O)N2CCN(c3ccccc3OC)CC2)cc1	11.9 µM

System: U2OS
Assay: Potentiation of cisplatin-induced cytotoxicity in cisplatin-resistant human U2OS cells assessed as cisplatin GI50 at 25 uM after 72 hrs by MTS assay (reference value: 23.9 +/- 1.9 uM)
Format: functional

Compound	GI50
CC(=O)N1CCC(C(=O)Nc2sc3c(c2C(=O)NC2CC2)CCC(C)C3)CC1 (stereo not given)	24.4 µM
COc1ccc(OC)c(-c2csc(N3CCN(C(=O)c4ccco4)CC3)n2)c1	11.9 µM
CC(=O)C(C)n1c(CN2CCN(c3cccc(Cl)c3)CC2)nc2c1c(=O)n(C)c(=O)n2C (stereo not given)	12.3 µM
CCCCc1ccc(-n2nnc(C(=O)N(C)C3CCS(=O)(=O)C3)c2C)cc1 (stereo not given)	25.7 µM
COc1cc2c(cc1OC)CN(Cc1ccc(OCc3ccccc3)cc1)CC2	13.4 µM
CCS(=O)(=O)N(C)c1ccc(C(=O)N2CCN(c3ccccc3OC)CC2)cc1	13.3 µM

System: U2OS
Assay: Potentiation of cisplatin-induced cytotoxicity in cisplatin-resistant human U2OS cells assessed as cisplatin GI50 at 10 uM after 72 hrs by MTS assay (reference value: 23.9 +/- 1.9 uM)
Format: functional

Compound	GI50
CC(=O)C(C)n1c(CN2CCN(c3cccc(Cl)c3)CC2)nc2c1c(=O)n(C)c(=O)n2C (stereo not given)	19.3 µM
COc1cc2c(cc1OC)CN(Cc1ccc(OCc3ccccc3)cc1)CC2	16.5 µM

System: U2OS
Assay: Potentiation of cisplatin-induced cytotoxicity in cisplatin-resistant human U2OS cells assessed as increase in cisplatin-induced reduction in colony survival at 20 uM treated for 24 hrs measured after 7 days by Coomassie Brilliant Blue R-250 staining based assay
Format: functional, cell-based

Compound	Activity
CC(=O)N1CCC(C(=O)Nc2sc3c(c2C(=O)NC2CC2)CCC(C)C3)CC1 (stereo not given)	inactive
COc1cc2c(cc1OC)CN(Cc1ccc(OCc3ccccc3)cc1)CC2	Active

System: not listed separately
Assay: Retention time of the compound in human liver microsomes at 10 uM by LC-MS/MS analysis
Format: ADME, microsome

Compound	Retention_time
CCCc1cc(C(=O)OC)c(NC(=O)C2CCNCC2)s1	10.58 min
CCCc1cc(C(=O)O)c(NC(=O)C2CCN(C(C)=O)CC2)s1	3.8 min
